pIC50: −log10 of the molar value.
Columns and labels:
[1] = target: T1, Flt-1 VEGF-receptor tyrosine kinase (Homo sapiens, UniProt P17948); assay: Test for activity against Flt-1 VEGF-receptor tyrosine kinase; type: biochemical
T1 construct: 10 ng of the kinase domain of Flt-1
T1 sequence (P17948 827-1158 limits assumed): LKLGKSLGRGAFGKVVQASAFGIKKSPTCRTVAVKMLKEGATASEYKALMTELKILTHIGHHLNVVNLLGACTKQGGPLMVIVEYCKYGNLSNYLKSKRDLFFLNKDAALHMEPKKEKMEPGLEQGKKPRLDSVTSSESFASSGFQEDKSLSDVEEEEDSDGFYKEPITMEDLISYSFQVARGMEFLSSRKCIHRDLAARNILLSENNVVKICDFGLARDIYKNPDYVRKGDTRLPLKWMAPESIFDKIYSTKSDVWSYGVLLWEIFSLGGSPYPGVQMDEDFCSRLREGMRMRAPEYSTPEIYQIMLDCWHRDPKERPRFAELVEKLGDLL
Protocol: Test for activity against VEGF-receptor tyrosine kinase: the test is conducted using Flt-1 VEGF-receptor tyrosine kinase. […] The reaction is then ended by the addition of 10 μl 0.25 M ethylenediaminetetraacetate (EDTA) pH 7. Using a multichannel dispenser (LAB SYSTEMS, USA), an aliquot of 20 μl is applied to a PVDF (=polyvinyl difluoride) Immobilon P membrane (Millipore, USA), which is incorporated into a Millipore microtitre filter manifold, and connected to a vacuum. Following complete elimination of the liquid, the membrane is washed 4 times successively in a bath containing 0.5% phosphoric acid (H3PO4), incubated for 10 minutes each time while shaking, then mounted in a Hewlett Packard TopCount Manifold and the radioactivity measured after the addition of 10 μl Microscint® (β-scintillation counter liquid; Packard USA).
The test is conducted using Flt-1 VEGF-receptor tyrosine kinase, as described hereinabove.

male Wistar rats = assay: Rat adjuvant arthritis model, therapeutic dosing; type: in vivo; details: for % inhibition of swelling: day 15 to day 22, swelling of the tarsal joints
From the text: The well-known rat adjuvant arthritis model (Pearson, Proc. Soc. Exp. Biol. 91, 95-101 (1956)) is used to test the anti-arthritic activity of compounds of the formula I, or salts thereof. Adjuvant Arthritis can be treated uwing two different dosing schedules: either (i) starting time of immunisation with adjuvant (prophylactic dosing); or from day 15 when the arthritic response is already established (therapeutic dosing). Preferably a therapeutic dosing schedule is used. For comparison, e.g. SDZ115-155 (=DUP697) is administered in a separate group.
(§1) In detail, male Wistar rats (5 animals per group, weighing epproximately 200 g, supplied by Iffa Credo, France) are injected i.d. (intra-dermally) at the base of the tail with 0.1 ml of mineral oil containing 0.6 mg of lyophilised heat-killed Mycobacterium tuberculosis. The rats are treated with the test compound (3, 10 or 30 mg/kg p.o. once per day), or vehicle (water) from day 15 to day 22 (therapeutic dosing schedule). At the end of the experiment, the swelling of the tarsal joints is measured by means of a mico-calliper. Percentage inhibition of paw swelling is calculated by reference to vehicle treated arthritic animals (0% inhibition) and vehicle treated normal animals (100% inhibition).
The rat adjuvant arthritis model is used to test the anti-arthritic activity of the compound of Example 1 of WO 98/35958, 1-(4-chloroanilino)-4-(4-pyridylmethyl)phthalazine dihydrochloride. The therapeutic dosing schedule with start of treatment at day 15 after induction of arthritis is used.
as §1, with “Method: Male Wistar” for “In detail, male Wistar”, “(5 rats” for “(5 animals”, “group, weight about” for “group, weighing epproximately”, “200 g;” for “200 g, supplied by”, “of lyophilized” for “of lyophilised”, “p.o. s.i.d. (=once a” for “p.o. once per”

male Sprague Dawley rats = assay: Rat inflammatory hyperalgesia model (Randall-Selitto paw pressure test); type: in vivo; details: 30 mg/kg p.o., 1 and 2 hours after dosing
Protocol: In this model, the hyperalgesia caused by an intra-planar yeast injection is measured by applying increased pressure to the foot until the animal vocalizes or withdraws its foot from the applied pressure pad. The model is sensitive to COX inhibitors, and diclofenac at 3 mg/kg is used as a positive control.
Method: The baseline pressure required to induce vocalization or withdrawal of the paw of male Sprague Dawley rats (weighing approximately 180 g, supplied by Iffa Credo, France) is measured (2 hours before treatment), followed by an intra-planar injection of 100 μl of a 20% yeast suspension in water in the hind paw. […]
In this model, the hyperalgesia caused by an intra-planar yeast injection is measured by applying increased pressure to the foot until the animal vocalizes or withdraws its foot from the applied pressure pad. […]
Method: The baseline pressure required to induce vocalization or withdrawal of the paw of male Sprague Dawley rats (5 rats per group; weight approximately 180 g, Iffa Credo, France) is measured (2 hours before treatment), followed by an intra-planar injection of 100 μl of a 20% yeast suspension in water in the hind paw. […] Pressure is measured with the standard apparatus from Ugo Basile, Italy, for the paw pressure test (Randall-Selitto).

pIC50 [1] | melting point [°C] | SMILES | also measured
6.15 | – | Cc1cccc(Nc2nnc(/C=C/c3cccnc3)c3ccccc23)c1 [1 (E isomer)] | –
5.31 | – | Cc1cccc(Nc2nnc(/C=C\c3cccnc3)c3ccccc23)c1 [1 (Z isomer)] | –
– | – | Cl.Cl.Clc1ccc(Nc2nnc(Cc3ccncc3)c3ccccc23)cc1 [1-(4-chloroanilino)-4-(4-pyridylmethyl)phthalazine dihydrochloride] | % inhibition of swelling (male Wistar rats; 3 mg/kg p.o. once a day): 0.8 ± 4.0%; % inhibition of swelling (male Wistar rats; 10 mg/kg p.o. once a day): 12.4 ± 5.0%; % inhibition of swelling (male Wistar rats; 30 mg/kg p.o. once a day): 37.0 ± 2.3%; inhibition of paw swelling (in words) (male Wistar rats; 3, 10 or 30 mg/kg p.o., dosing for 7 days from day 15): dose-related inhibition of paw swelling; overall discomfort experienced by rats while being held for oral dosing (male Wistar rats; observation in the adjuvant arthritis model): reduce the overall discomfort; inhibition of paw hyperalgesia (in words) (male Sprague Dawley rats): inhibits paw hyperalgesia
– | – | CS(=O)(=O)c1ccc(-c2cc(Br)sc2-c2ccc(F)cc2)cc1 [115–155, reference compound] | % inhibition of swelling (male Wistar rats; 3 mg/kg p.o. once a day): 53.8 ± 2.7%
6.50 | 136 | Cc1cccc(Nc2nnc(CCc3cccnc3)c3ccccc23)c1 [Example 2] | –
– | 165 to 166 | FC(F)(F)c1cc(Nc2nnc(CCCc3cccnc3)c3ccccc23)ccc1Cl [Example 8, 1-(4-Chloro-3-trifluoromethylanilino)-4-[3-(pyridin-3-yl)propyl]phthalazine] | –
– | 232 to 233 | Cc1cc(Nc2nnc(Cc3ccncc3)c3ccccc23)nc(C)n1 [Example 15, 1-[(2,6-Dimethyl-pyrimidin-4-yl)-amino]4-(4-pyridyl-methyl)-phthalazine] | –
– | 184 to 185 | Cc1cc(Cc2nnc(Nc3cc(Br)cc(C(F)(F)F)c3)c3ccccc23)ccn1 [Example 23, 1-(3-Bromo-5-trifluoromethyl-anilino)-4-(2-methylpyridin-4-yl-methyl)-phthalazine] | –
